# Results reported in US20250327074A1 (SHAOXING INSTITUTE, ZHEJIANG UNIVERSITY, priority 2024, published 2025).
# Test system: rare codon in EGFP reporter, HEK293T cells
# Assay: LC-MS recoding efficiency of rare codons in EGFP reporter
# Format: cell-based
# Conditions: TCG at position 151 of EGFP; 12× tRNA; serine/glycine-free medium; 500 μM unnatural amino acid
# Procedure: The recoding translation system and the rare codon-bearing POI were co-transfected into HEK293T cells. Then, two methods were used to calculate the ncAA recoding rate: 1) LC-MS analysis: the protein of the POI mixture, including the fraction incorporated with ncAA and the fraction with NAA at rare codons, was purified by Ni2+-NTA beads and subjected to LC-MS analysis. The ncAA recoding rate was determined by the intensity of two fractions quantified by LC-MS. 2) TCO-PEG5000 mass tag labeling analysis: this method was suitable for quantifying the TetBu recoding rate in this work. When the protein mixture was incubated with TCO-PEG5000 mass tag, the protein incorporated with TetBu would be labeled by this mass tag and migrated much slower in SDS-PAGE.
# When the recoding system (TetRS/PylTyyy) is co-expressed with a target protein carrying the recoding codon in HEK293T, the recoding codon can be translated into a natural amino acid by endogenous tRNA (Dec-tRNA), or recoding into TetBu by the engineered tRNA (Rec-tRNA), producing a mixture of protein byproducts (with a single-site mutation) and the target protein containing TetBu. Based on this, two methods were established to assess sense codon recoding efficiency: a) Liquid chromatography-mass spectrometry (LC-MS) for differentiates proteins based on molecular weight differences, and b) TCO-PEG5000 macromolecular label target proteins containing TetBu, which increases their molecular weight by 5 kDa. The shift in protein bands is detected via immunoblotting (FIG. 2).
# (1) Transfection: Plasmids encoding the TetBu/PylTyyy recoding system (where xxx represents different codons and yyy represents different anticodons) were co-transfected with the plasmid mCherry-T2A-EGFP^N149XXX-6×His at a 1:1 (g:g) ratio. For a 10 cm dish, the total transfection mixture contained 20 μg DNA+[…] Lipofectamine 2000+2 mL Opti-MEM.
# (2) Protein expression and purification: After 6 hours, the medium was replaced with fresh DMEM containing 200 μM TetBu for 40 hours to induce protein expression. Cells were lysed in 1 mL Modified RIPA Buffer, and the supernatant was purified using Ni-NTA beads.
# (3) LC-MS analysis of recoding efficiency:Using a Waters Xevo G2-XS TOF Mass Spectrometer, the recoding efficiency of rare codons (CTA, GTA, CGT, CCG, GCG, ACG, and TCG) at the EGFP149 site was evaluated.
# (2) Cell transfection and protein expression purification: HEK293T cells were seeded in 10 cm culture dishes and transfected at 60-70% confluency. For each transfection, […] of plasmid carrying mCherry-T2A-EGFPY151TCG-6×His was co-transfected with one of the following recoding system plasmids: chPhe_AcFRS/12×(U6-chPheTCGA), EcTyr_OmeYRS/12×(U6-EcTyrTCGA), or EcLeu_OmeYRS/12×(U6-EcLeuTCGA). After 6 hours, the medium was replaced with serine/glycine-free DMEM/F12 containing 500 μM of the respective unnatural amino acid. Following protein expression and purification, LC-MS was used to determine TCG recoding efficiency at position 151 of EGFP. Detailed transfection and purification protocols following section 2.2.1.2, with cell culture conditions in serine-free medium as described in Example 2.
row,SMILES,recoding efficiency [%]
1,CCC(=O)NCCCC[C@H](N)C(=O)O [Kpr],79
2,CC(=O)NCCCC[C@H](N)C(=O)O [AcK],78
3,N[C@@H](Cc1ccc(OS(=O)(=O)O)cc1)C(=O)O [sTyr],85
4,CCCC(=O)NCCCC[C@H](N)C(=O)O [Kbu],74
5,"C/C=C/C(=O)NCCCC[C@H](N)C(=O)O [Kcr, ε-N-crotonyl-lysine]",84
6,"CC(C)(C)OC(=O)NCCCC[C@H](N)C(=O)O [BocK, ε-N-tert-butyloxycarbonyllysine]",82

# Test system: TCG codon, mammalian cells
# Assay: TCG codon recoding efficiency of all amino acids (Table 1)
# Format: cell-based
# Conditions: TCG codon recoding of the unnatural amino acid with the aaRS and mutation of the same table line; class symbols
# Source text: Specific details are shown in Table 1 below, where “wt” represents the wild-type aminoacyl-tRNA synthetase, “mutation sites” indicate the positions and types of mutations related to specific unnatural amino acid binding on the wild-type aminoacyl-tRNA synthetase, and “unnatural amino acid” represents the unnatural amino acid corresponding to the mutated aminoacyl-tRNA synthetase. In the unnatural amino acid encoding efficiency, “+” indicates a recoding efficiency greater than 40%, “++” greater than 60%, and “+++” greater than 80%.
# Accordingly, this application compiles all amino acids reported in the literature that are recognized by orthogonal aminoacyl-tRNA synthetases in mammalian systems and evaluates their recoding efficiency using the TCG codon as an example.
row,SMILES,Recoding rate (%)
1,C=CCCCOc1ccc(C[C@H](N)C(=O)O)cc1 [compound 243],++ (“++” greater than 60%)
2,CC(SCCOC(=O)NCC(N)C(=O)O)c1cc2c(cc1[N+](=O)[O-])OCO2 (mixture of isomers) [compound 276],+ (“+” indicates a recoding efficiency greater than 40%)
3,CCSCCCC[C@H](N)C(=O)O [compound 393],++ (“++” greater than 60%)
4,C=CCCCOC[C@H](N)C(=O)O [compound 409],+++ (“+++” greater than 80%)
5,N[C@@H](Cc1ccc(NC(=O)CF)cc1)C(=O)O [compound 355],+++ (“+++” greater than 80%)
6,N[C@@H](Cc1ccc(C(=O)c2ccc(Cl)cc2)cc1)C(=O)O [compound 343],++ (“++” greater than 60%)
7,N[C@@H](Cc1ccc(C(=O)CF)cc1)C(=O)O [compound 338],++ (“++” greater than 60%)
8,N[C@@H](CNc1ccc2ccccc2c1)C(=O)O [compound 392],++ (“++” greater than 60%)
9,C=CCCC(=O)Nc1ccc(C[C@H](N)C(=O)O)cc1 [compound 353],+++ (“+++” greater than 80%)
10,COc1ccc2c(C[C@H](N)C(=O)O)c[nH]c2c1OC [compound 296],+++ (“+++” greater than 80%)
11,CC([Se]CC(N)C(=O)O)c1cc2c(cc1[N+](=O)[O-])OCO2 (mixture of isomers) [compound 275],+ (“+” indicates a recoding efficiency greater than 40%)
12,N#Cc1ccc(C[C@H](N)C(=O)O)cc1 [compound 368],+++ (“+++” greater than 80%)
13,CN(C)c1ccc(-c2oc(N)nc2C(=O)O)cc1 [compound 279],++ (“++” greater than 60%)
14,CCCCCCC#Cc1ccc(C[C@H](N)C(=O)O)cc1 [compound 312],++ (“++” greater than 60%)
15,C=CC[Se]C[C@H](N)C(=O)O [compound 272],+ (“+” indicates a recoding efficiency greater than 40%)
16,CCCCCCSC[C@H](N)C(=O)O [compound 379],++ (“++” greater than 60%)
17,N[C@@H](CCC(=O)OCc1ccccc1[N+](=O)[O-])C(=O)O [compound 263],+ (“+” indicates a recoding efficiency greater than 40%)
18,N[C@@H](CSCc1ccccc1[N+](=O)[O-])C(=O)O [compound 268],+ (“+” indicates a recoding efficiency greater than 40%)
19,N[C@@H](Cc1ccc(C(=O)c2cccc(Cl)c2)cc1)C(=O)O [compound 341],++ (“++” greater than 60%)
20,CCCCCC[C@H](N)C(=O)O [compound 376],++ (“++” greater than 60%)
21,CCCCC=Cc1ccc(C[C@H](N)C(=O)O)cc1 [compound 315],+++ (“+++” greater than 80%)
22,Cc1ccc2c(C[C@H](N)C(=O)O)c[nH]c2c1C [compound 295],+++ (“+++” greater than 80%)
23,N[C@@H](CCCS)C(=O)O [compound 394],++ (“++” greater than 60%)
24,N[C@@H](Cc1ccc(O)c(I)c1)C(=O)O [compound 334],+++ (“+++” greater than 80%)
25,N[C@@H](CCC(=O)OCc1ccccc1)C(=O)O [compound 265],++ (“++” greater than 60%)
26,CN(C)c1cccc(C[C@H](N)C(=O)O)c1 [compound 288],+++ (“+++” greater than 80%)
27,CC(=O)CCCSC[C@H](N)C(=O)O [compound 377],++ (“++” greater than 60%)
28,[N-]=[N+]=NCCCCSC[C@H](N)C(=O)O [compound 388],++ (“++” greater than 60%)
29,CCCCCC#Cc1ccc(C[C@H](N)C(=O)O)cc1 [compound 311],+++ (“+++” greater than 80%)
30,N[C@@H](Cc1ccc([N+](=O)[O-])cc1)C(=O)O [compound 367],+++ (“+++” greater than 80%)

# Same assay, conditions: TCG codon recoding of the unnatural amino acid with the aaRS and mutation of the same table line; numeric values
row,SMILES,Recoding rate (%)
1,N[C@@H](Cc1ccc(OCCBr)cc1)C(=O)O [compound 337],60%
2,COc1ccc2c(C[C@H](N)C(=O)O)c[nH]c2c1 [compound 327],80%
3,N[C@@H](Cc1ccc(I)cc1)C(=O)O [compound 370],64%
4,N[C@@H](Cc1cc(Br)ccc1Cl)C(=O)O [compound 245],75%
5,N[C@@H](CC(=O)OCc1ccccc1)C(=O)O [compound 266],75%
6,N[C@@H](Cc1cccc(I)c1)C(=O)O [compound 286],61%
7,CCCCCCCSC[C@H](N)C(=O)O [compound 383],74%
8,COc1ccc2[nH]cc(C[C@H](N)C(=O)O)c2c1 [compound 413],85%
9,Nc1cc(C[C@H](N)C(=O)O)ccc1O [compound 361],50%
10,N[C@@H](CC(=O)OCc1ccccc1[N+](=O)[O-])C(=O)O [compound 261],23%
11,Cn1cncc1C[C@H](N)C(=O)O [compound 253],85%
12,CCCCCSC[C@H](N)C(=O)O [compound 381],83%
13,CC(=O)N(C)CCCC[C@H](N)C(=O)O [compound 410],83%
14,N[C@@H](Cc1cc(Cl)ccc1Cl)C(=O)O [compound 246],84%
15,C#CCOc1ccc(C[C@H](N)C(=O)O)cc1 [compound 363],78%
16,N[C@@H](Cc1cccc(F)c1F)C(=O)O [compound 228],80? %
17,N[C@@H](Cc1c[nH]c2c(F)cccc12)C(=O)O [compound 250],74%
18,N[C@@H](Cc1cccc(I)c1)C(=O)O [compound 329],56%
19,COc1ccc(C[C@H](N)C(=O)O)cc1 [compound 400],92%
20,[N-]=[N+]=Nc1ccc(C[C@H](N)C(=O)O)cc1 [compound 298],88%
21,N[C@@H](Cc1csc2ccccc12)C(=O)O [compound 299],84%
22,N[C@@H](Cc1c[nH]c2ncccc12)C(=O)O [compound 251],22%
